US20160287515A1, “REGIMEN AND METHOD FOR TREATMENT OF TYPE 2 DIABETES” (Omniblend Innovation Pty Ltd, priority 2013, published 2016)

Tested on: subject on metformin (type 2 diabetes)
Assay: Blood glucose response after a standard meal under three treatment regimens (Example 1)
Format: in vivo, human
Conditions: control regimen: metformin 500 mg with the standard meal, no pre-meal drink; after overnight fasting
Description: This example compares the blood glucose response in a subject on a dosage of metformin of 500 mg (immediate release dosage) taken twice per day using three different treatment regimens after overnight fasting on separate dates.
The three treatment regimens were as follows: • 1. Regimen in accordance with the invention in which a dose of 500 mg mg of metformin as a (immediate release) tablet 30 minutes before a standard meal followed by a standard drink 15 minutes before the standard meal. Blood glucose levels with time are shown in plot 1 of FIG. 1. • 2. Control Regimen in which the metformin medication was administered with the standard meal without the pre-meal drink. Blood glucose levels with time are shown in plot 2 of FIG. 1. • 3. Comparison regimen in which the standard drink was administered 15 minutes before a meal and the metformin medication was administered with the standard meal. Blood glucose levels with time are shown in plot 3 of FIG. 1.
The standard pre-meal drink used in Example 1 was formed of the following composition: • 20 g WPC-80 • 5 g guar gum • 150 ml water
The drink was prepared by mixing the powder with water according to the following procedure: • 20 g of WPC80 (whey protein concentrate) and 5 g of guar gum were mixed together as a powder. […] The lid was removed ready for the participant to consume immediately. […]

## CN(C)C(=N)N=C(N)N [metformin, Metformin]
  post-prandial blood glucose with time (FIG. 1, Plot 2): significant rise in post-prandial glucose for a period of over 60 minutes
